Laboratory results: ChEMBL document CHEMBL1201862, “PubChem BioAssay data set” (2004)
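All cell lines were grown in 96-well plates and treated with compound for 48 hours. At the GI50, growth is halved.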 Calls of active or inactive are those of the source. Cut-off read from the data, not from the text of the source: active = GI50 up to about 1.1 µM and inactive = higher.

Assays:
Test in all cases: NCI anticancer screen, dose series, 48 h
[1] = test system: OVCAR-8
[2] = test system: SK-MEL-28
[3] = test system: MOLT-4
[4] = test system: LOX IMVI
[5] = test system: IGROV-1
[6] = test system: Malme-3M
[7] = test system: EKVX
[8] = test system: NCI-H23
[9] = test system: HOP-62
[10] = test system: DLD-1
[11] = test system: ACHN
[12] = test system: A549
[13] = test system: SNB-75
[14] = test system: UACC-257
[15] = test system: NCI-H522
[16] = test system: UACC-62
[17] = test system: NCI/ADR-RES
[18] = test system: T47D
[19] = test system: BT-549
[20] = test system: MCF7

Row | SMILES | GI50 [1] | GI50 [2] | GI50 [3] | GI50 [4] | GI50 [5] | GI50 [6] | GI50 [7] | GI50 [8] | GI50 [9] | GI50 [10] | GI50 [11] | GI50 [12] | GI50 [13] | GI50 [14] | GI50 [15] | GI50 [16] | GI50 [17] | GI50 [18] | GI50 [19] | GI50 [20]
1 | O=C1Cc2ccccc2CCc2ccccc21 | > 100 µM (inactive) | > 100 µM (inactive) | > 100 µM (inactive) | > 100 µM (inactive) | > 100 µM (inactive) | 44.7 µM (inactive) | 79.6 µM (inactive) | 74.6 µM (inactive) | > 100 µM (inactive) | > 100 µM (inactive) | > 100 µM (inactive) | > 100 µM (inactive) | 81.8 µM (inactive) | > 100 µM (inactive) | 68.9 µM (inactive) | > 100 µM (inactive) |  |  |  | 
2 | C=C1CCC2(C(C)=O)COC1(C)O2 (stereo not given) | > 100 µM (inactive) | > 100 µM (inactive) | > 100 µM (inactive) | > 100 µM (inactive) | > 100 µM (inactive) | > 100 µM (inactive) | > 100 µM (inactive) | > 10 µM (inactive) | > 100 µM (inactive) | > 100 µM (inactive) | > 100 µM (inactive) | > 100 µM (inactive) | > 100 µM (inactive) | > 100 µM (inactive) | > 10 µM (inactive) | > 100 µM (inactive) |  |  |  | 
3 | O=C(c1ccccc1)c1ccc(OCCOc2ccc(Nc3ccccc3)cc2)cc1 | 32.4 µM (inactive) | 73.3 µM (inactive) | > 100 µM (inactive) | > 100 µM (inactive) | 52.2 µM (inactive) | 19.2 µM (inactive) | 74.8 µM (inactive) | 46.8 µM (inactive) | 23.9 µM (inactive) | 50.9 µM (inactive) | 24.3 µM (inactive) | 64.3 µM (inactive) | 15.6 µM (inactive) | 65.8 µM (inactive) | 17.8 µM (inactive) | 63.4 µM (inactive) |  |  |  | 
4 | O=[N+]([O-])c1ccc(-c2ccc(C3=Nn4c(nnc4-c4ccc(Cl)cc4)SC3)o2)cc1 | > 92 µM (inactive) | > 100 µM (inactive) | > 100 µM (inactive) | > 100 µM (inactive) | 56 µM (inactive) | > 52.5 µM (inactive) | > 100 µM (inactive) | > 53.2 µM (inactive) | 31 µM (inactive) | > 91.4 µM (inactive) | 46.6 µM (inactive) | 47.1 µM (inactive) | 25.4 µM (inactive) | > 100 µM (inactive) | > 89.3 µM (inactive) | > 100 µM (inactive) |  |  |  | 
5 | Cn1cc(NC(=O)c2cc(NC(=O)CCCCCCCCCC(=O)Nc3cc(C(=O)Nc4cc(C(=O)NCCC(=N)N)n(C)c4)n(C)c3)cn2C)cc1C(=O)NCCC(=N)N | 25.7 µM (inactive) | 11.9 µM (inactive) | 25.1 µM (inactive) | 31 µM (inactive) | 41.5 µM (inactive) | 0.971 µM (active) | 28.6 µM (inactive) | 34.8 µM (inactive) | 24.5 µM (inactive) | 34.2 µM (inactive) | 23.5 µM (inactive) | 18.7 µM (inactive) | 27.9 µM (inactive) | 15.8 µM (inactive) | 11 µM (inactive) | 31.2 µM (inactive) |  |  |  | 
6 | CC1=C(NC(=O)/C(=N/NC(=S)NN)C2C(=O)CC(C)(C)CC2=O)C(=O)c2ccccc2C1=O | 4.55 µM (inactive) | 12.9 µM (inactive) | 4.07 µM (inactive) | 3.34 µM (inactive) | 5.21 µM (inactive) | 16 µM (inactive) | 15.7 µM (inactive) | 5.06 µM (inactive) | 16.1 µM (inactive) | 4.48 µM (inactive) | 13.3 µM (inactive) | 9.4 µM (inactive) | 21.6 µM (inactive) | 3.43 µM (inactive) | 2.85 µM (inactive) | 2.49 µM (inactive) |  |  |  | 
7 | Oc1ccc(-c2c3ccccc3c(-c3ccc(O)cc3)c3ccccc23)cc1 | > 100 µM (inactive) | > 100 µM (inactive) | > 100 µM (inactive) | 60.5 µM (inactive) | > 100 µM (inactive) | > 100 µM (inactive) | > 100 µM (inactive) | > 100 µM (inactive) | > 100 µM (inactive) | > 100 µM (inactive) | 89.9 µM (inactive) | > 100 µM (inactive) | 39.8 µM (inactive) | > 100 µM (inactive) | > 100 µM (inactive) | 41 µM (inactive) |  |  |  | 
8 | O=C1Oc2cc3c(c4cccc1c24)OCN(c1ccccc1)C3 | > 100 µM (inactive) | > 100 µM (inactive) | > 100 µM (inactive) | 43.7 µM (inactive) | > 100 µM (inactive) | > 100 µM (inactive) | > 100 µM (inactive) | > 100 µM (inactive) | > 100 µM (inactive) | > 100 µM (inactive) | > 100 µM (inactive) | > 100 µM (inactive) | > 100 µM (inactive) | > 100 µM (inactive) | 26.2 µM (inactive) | 36.5 µM (inactive) |  |  |  | 
9 | CCOC(=O)CSc1nnc(C(Sc2nc(-c3ccccc3)c(-c3ccccc3)[nH]2)C(C)C)n1-c1ccccc1 (stereo not given) | 19.1 µM (inactive) | 18.2 µM (inactive) | 17.1 µM (inactive) | 13.7 µM (inactive) | > 10 µM (inactive) | 17.5 µM (inactive) | 21.2 µM (inactive) | > 10 µM (inactive) | > 10 µM (inactive) | > 10 µM (inactive) | 19.7 µM (inactive) | 19.2 µM (inactive) | > 10 µM (inactive) | 14 µM (inactive) | 15.2 µM (inactive) | > 10 µM (inactive) | 26.9 µM (inactive) | 28.3 µM (inactive) | 24.5 µM (inactive) | 34.7 µM (inactive)
10 | COC1C2c3ccccc3C(C#N)(Cc3ccc4c(c32)OCO4)N1C(=O)c1ccccc1 (stereo not given) | 84.9 µM (inactive) | 90.8 µM (inactive) | 30.1 µM (inactive) | > 100 µM (inactive) | 13 µM (inactive) | 37.8 µM (inactive) | 45.8 µM (inactive) | 62.2 µM (inactive) | 14.4 µM (inactive) | 60.3 µM (inactive) | 41.4 µM (inactive) |  | 50.6 µM (inactive) | 26.1 µM (inactive) | 10.5 µM (inactive) | 3.37 µM (inactive) |  |  |  | 
11 | C/C(CC(=O)Nc1cccc(Cl)c1C)=N\NC(N)=S | > 100 µM (inactive) | > 100 µM (inactive) | > 100 µM (inactive) | > 100 µM (inactive) | > 100 µM (inactive) | > 100 µM (inactive) | > 100 µM (inactive) | > 100 µM (inactive) | > 100 µM (inactive) | > 100 µM (inactive) |  | > 100 µM (inactive) | > 100 µM (inactive) | > 100 µM (inactive) | 39.6 µM (inactive) | > 100 µM (inactive) |  |  |  | 
12 | CN(CCO)c1nc(N)cc(=O)[nH]1 | > 100 µM (inactive) | > 100 µM (inactive) | > 100 µM (inactive) | > 100 µM (inactive) | > 100 µM (inactive) | > 100 µM (inactive) | > 100 µM (inactive) | > 100 µM (inactive) | > 100 µM (inactive) | > 100 µM (inactive) | > 100 µM (inactive) | > 100 µM (inactive) | 38.7 µM (inactive) | > 100 µM (inactive) | > 100 µM (inactive) | > 100 µM (inactive) |  |  |  | 
13 | NNC(=O)CCC(=O)Nc1cc(Cl)c(Cl)cc1Cl | > 100 µM (inactive) | > 100 µM (inactive) | 90.6 µM (inactive) | > 100 µM (inactive) | > 100 µM (inactive) | > 100 µM (inactive) |  | > 100 µM (inactive) | > 100 µM (inactive) | > 100 µM (inactive) | > 100 µM (inactive) | > 100 µM (inactive) | 95.1 µM (inactive) | > 100 µM (inactive) | > 100 µM (inactive) | > 100 µM (inactive) |  |  |  | 
14 | Cc1ccc(NC(=O)CC2C(=O)Nc3ccccc3S2(=O)=O)c(C)c1 (stereo not given) | 18.2 µM (inactive) | 17 µM (inactive) | 7.33 µM (inactive) | 15 µM (inactive) | 12.4 µM (inactive) | 12.9 µM (inactive) | 42.5 µM (inactive) | 17.8 µM (inactive) |  | 14.6 µM (inactive) | 18 µM (inactive) | 18.7 µM (inactive) | 15.2 µM (inactive) | 21.6 µM (inactive) | 10.9 µM (inactive) | 7.26 µM (inactive) |  |  |  | 
15 | O=S(O)CCCCCSSCCCCSSCCCCCS(=O)O | > 100 µM (inactive) | > 100 µM (inactive) | 33.8 µM (inactive) | > 100 µM (inactive) | > 100 µM (inactive) | 27.7 µM (inactive) | > 100 µM (inactive) | > 100 µM (inactive) | > 100 µM (inactive) | > 100 µM (inactive) | > 100 µM (inactive) | > 100 µM (inactive) | 30.8 µM (inactive) | > 100 µM (inactive) | 64.9 µM (inactive) | > 100 µM (inactive) |  |  |  | 
16 | C[C@@H]1C[C@@H](O)[C@]2(O)O[C@@H]3C[C@@]4(C=O)[C@@H](CC[C@@H]5[C@@H]4CC[C@]4(C)[C@@H](C6=CC(=O)OC6)CC[C@]54O)C[C@H]3O[C@@H]2O1 [CALACTIN] | 0.0108 µM (active) | 0.0288 µM (active) | 0.00188 µM (active) | 0.0148 µM (active) | 0.00962 µM (active) | 0.0119 µM (active) | 0.0244 µM (active) | 0.00222 µM (active) | 0.00671 µM (active) | 0.012 µM (active) | 0.00283 µM (active) | 0.00439 µM (active) | 0.0251 µM (active) | 0.0213 µM (active) | 0.00138 µM (active) | 0.016 µM (active) | 0.0306 µM (active) | 0.0469 µM (active) | 0.0379 µM (active) | 0.0335 µM (active)
